Assay results taken from patent publication US12552785B2, “Pyrazolo[1,5-α]pyridine derivative, preparation method therefor, and composition and use thereof” (SHENZHEN ZHONGGE BIOLOGICAL TECHNOLOGY CO., LTD., priority 2020, dated 2026).

Legend:
VEGFR2 = VEGFR2 (Homo sapiens, UniProt P35968); test: HTRF method for testing the inhibitory activity of compounds against VEGFR2; assay type: biochemical; conditions: IC50 by nonlinear regression, read-out: VEGFR2 kinase activity
Outline: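 HTRF kinase assay with 10-point, 1:3 compound dilutions prepared in DMSO from 1 mM. The reaction was incubated 40 min at room temperature. IC50 came from nonlinear regression (variable slope) of inhibition against log concentration.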

Ba/F3-KIF5B-RET cell = target: T1, Ba/F3-KIF5B-RET cell (Homo sapiens, UniProt P07949); test: CellTiter-Glo luminescence assay for inhibitory activity against Ba/F3-KIF5B-RET cell; assay type: cell-based; conditions: Ba/F3-KIF5B-RET cells, 72 h
T1 construct: fused on or other part: P33176 (Kinesin-1 heavy chain)
T1 sequence (P07949 whole entry, stated change not applied, the tested form may be a part): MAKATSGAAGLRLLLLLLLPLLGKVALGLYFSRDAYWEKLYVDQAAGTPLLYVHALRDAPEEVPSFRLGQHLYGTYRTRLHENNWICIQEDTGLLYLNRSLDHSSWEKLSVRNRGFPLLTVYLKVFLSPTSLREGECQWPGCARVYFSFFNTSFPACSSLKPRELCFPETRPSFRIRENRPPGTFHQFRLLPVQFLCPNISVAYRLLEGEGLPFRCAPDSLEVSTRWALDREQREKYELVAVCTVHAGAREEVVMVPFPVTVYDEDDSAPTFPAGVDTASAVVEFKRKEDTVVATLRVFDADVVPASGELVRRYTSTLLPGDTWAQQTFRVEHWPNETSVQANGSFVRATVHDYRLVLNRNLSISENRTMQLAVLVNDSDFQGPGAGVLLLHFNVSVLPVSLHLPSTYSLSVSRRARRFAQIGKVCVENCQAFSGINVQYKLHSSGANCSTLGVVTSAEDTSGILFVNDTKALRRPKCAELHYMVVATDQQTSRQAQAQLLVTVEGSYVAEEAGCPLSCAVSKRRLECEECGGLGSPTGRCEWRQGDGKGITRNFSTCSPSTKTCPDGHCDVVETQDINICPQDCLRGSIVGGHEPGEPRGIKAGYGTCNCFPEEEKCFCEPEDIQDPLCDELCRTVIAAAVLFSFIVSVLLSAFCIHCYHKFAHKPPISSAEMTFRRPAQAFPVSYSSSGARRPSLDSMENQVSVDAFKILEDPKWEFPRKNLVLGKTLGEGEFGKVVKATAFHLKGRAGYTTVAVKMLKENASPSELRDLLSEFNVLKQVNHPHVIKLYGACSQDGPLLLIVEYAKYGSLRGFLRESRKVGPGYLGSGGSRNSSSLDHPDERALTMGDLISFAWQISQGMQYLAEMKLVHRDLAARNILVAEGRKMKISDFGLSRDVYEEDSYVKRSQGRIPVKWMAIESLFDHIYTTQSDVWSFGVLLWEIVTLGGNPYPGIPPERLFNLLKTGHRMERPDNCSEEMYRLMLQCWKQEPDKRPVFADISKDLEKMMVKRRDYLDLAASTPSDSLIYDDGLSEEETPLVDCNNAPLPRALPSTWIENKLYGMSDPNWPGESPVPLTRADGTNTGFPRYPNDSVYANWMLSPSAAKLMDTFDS
Outline: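 Ba/F3 cells stably expressing human KIF5B-RET (puromycin-selected) were treated with compounds in a 10-point, 1:3 dilution series from a 2 mM DMSO intermediate. Viability by CellTiter-Glo luminescence; IC50 fitted with a four-parameter logistic equation.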

RET = RET (Homo sapiens, UniProt P07949); test: HTRF method for testing the inhibitory activity of compounds against RET; assay type: biochemical; conditions: IC50 by nonlinear regression, read-out: RET kinase activity
Chain of RET (P07949 29-1114): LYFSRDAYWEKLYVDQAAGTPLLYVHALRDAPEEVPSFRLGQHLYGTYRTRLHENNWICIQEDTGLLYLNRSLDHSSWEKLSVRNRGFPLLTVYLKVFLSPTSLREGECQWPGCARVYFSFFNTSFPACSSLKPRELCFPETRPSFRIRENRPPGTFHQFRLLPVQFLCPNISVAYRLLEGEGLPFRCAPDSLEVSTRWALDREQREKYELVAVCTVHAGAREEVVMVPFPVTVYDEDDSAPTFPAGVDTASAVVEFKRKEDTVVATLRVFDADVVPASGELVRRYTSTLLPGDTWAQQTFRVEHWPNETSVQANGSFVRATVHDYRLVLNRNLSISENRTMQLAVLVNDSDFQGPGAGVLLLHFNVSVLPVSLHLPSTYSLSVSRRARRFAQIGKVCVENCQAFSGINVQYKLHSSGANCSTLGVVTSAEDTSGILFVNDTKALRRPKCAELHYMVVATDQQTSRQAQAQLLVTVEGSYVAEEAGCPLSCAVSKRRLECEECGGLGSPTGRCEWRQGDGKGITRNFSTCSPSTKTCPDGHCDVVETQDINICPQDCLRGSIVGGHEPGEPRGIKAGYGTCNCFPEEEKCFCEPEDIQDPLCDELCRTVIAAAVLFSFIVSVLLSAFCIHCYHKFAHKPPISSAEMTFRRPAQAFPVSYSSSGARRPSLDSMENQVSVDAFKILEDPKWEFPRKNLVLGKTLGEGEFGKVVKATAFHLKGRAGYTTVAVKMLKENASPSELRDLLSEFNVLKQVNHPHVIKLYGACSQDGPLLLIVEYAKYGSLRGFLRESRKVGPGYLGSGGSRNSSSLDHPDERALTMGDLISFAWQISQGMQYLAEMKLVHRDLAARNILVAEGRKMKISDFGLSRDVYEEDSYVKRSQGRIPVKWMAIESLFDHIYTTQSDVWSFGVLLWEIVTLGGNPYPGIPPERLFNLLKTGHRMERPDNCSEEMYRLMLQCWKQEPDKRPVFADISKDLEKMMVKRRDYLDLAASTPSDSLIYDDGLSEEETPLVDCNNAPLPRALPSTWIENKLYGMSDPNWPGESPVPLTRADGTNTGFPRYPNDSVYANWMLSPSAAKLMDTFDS
Outline: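 Compounds tested at 10 concentrations in 1:3 series, duplicate wells, 0.5% DMSO final; reaction incubated 30 min at room temperature. IC50 obtained by nonlinear regression (variable-slope dose response) of inhibition against log compound concentration.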

Chain of VEGFR2 (P35968 20-1356, species assumed): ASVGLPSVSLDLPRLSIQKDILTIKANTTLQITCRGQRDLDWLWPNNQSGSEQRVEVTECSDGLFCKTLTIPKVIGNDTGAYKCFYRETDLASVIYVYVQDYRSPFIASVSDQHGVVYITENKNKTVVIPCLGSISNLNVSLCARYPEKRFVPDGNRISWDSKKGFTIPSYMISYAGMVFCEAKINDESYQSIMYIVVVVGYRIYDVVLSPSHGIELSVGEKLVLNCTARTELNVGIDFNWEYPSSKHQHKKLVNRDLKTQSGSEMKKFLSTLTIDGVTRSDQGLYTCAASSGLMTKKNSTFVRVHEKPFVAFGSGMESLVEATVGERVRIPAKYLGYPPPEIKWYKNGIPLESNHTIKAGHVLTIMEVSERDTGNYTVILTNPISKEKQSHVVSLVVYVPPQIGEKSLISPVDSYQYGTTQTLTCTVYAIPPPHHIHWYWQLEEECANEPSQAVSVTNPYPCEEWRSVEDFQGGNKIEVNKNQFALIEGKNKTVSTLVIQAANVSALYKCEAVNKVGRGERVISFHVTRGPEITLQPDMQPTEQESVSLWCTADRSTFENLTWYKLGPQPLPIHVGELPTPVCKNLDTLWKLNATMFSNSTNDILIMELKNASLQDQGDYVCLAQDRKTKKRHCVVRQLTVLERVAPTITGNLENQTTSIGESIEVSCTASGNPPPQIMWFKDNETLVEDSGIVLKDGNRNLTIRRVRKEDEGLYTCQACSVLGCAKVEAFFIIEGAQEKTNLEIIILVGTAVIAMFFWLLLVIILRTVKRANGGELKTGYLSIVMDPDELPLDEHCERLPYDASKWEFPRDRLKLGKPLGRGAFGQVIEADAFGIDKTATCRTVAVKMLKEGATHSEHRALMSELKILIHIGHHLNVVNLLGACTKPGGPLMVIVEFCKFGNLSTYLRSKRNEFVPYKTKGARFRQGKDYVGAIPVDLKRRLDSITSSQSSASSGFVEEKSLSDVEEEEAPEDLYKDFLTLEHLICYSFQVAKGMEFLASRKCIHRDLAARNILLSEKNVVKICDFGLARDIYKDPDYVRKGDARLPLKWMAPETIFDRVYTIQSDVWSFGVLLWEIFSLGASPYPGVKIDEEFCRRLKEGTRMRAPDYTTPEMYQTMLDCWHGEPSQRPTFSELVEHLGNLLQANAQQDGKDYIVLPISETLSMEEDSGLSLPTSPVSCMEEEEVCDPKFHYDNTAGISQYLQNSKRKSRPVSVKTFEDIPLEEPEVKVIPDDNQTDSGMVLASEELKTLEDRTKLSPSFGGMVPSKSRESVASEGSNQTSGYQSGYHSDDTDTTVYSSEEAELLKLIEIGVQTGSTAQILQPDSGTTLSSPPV

Structure (SMILES): CCNc1cc(-c2ccc(N(C)[C@@H](C)c3ccc(-n4cc(F)cn4)nc3)nc2)c2c(C#N)cnn2c1 [Compound 51, (S)-4-(6-((1-(6-(4-fluoro-1H-pyrazol-1-yl)pyridin-3-yl)ethyl)(methyl)amino)pyridine-3-yl)-6-(ethylamino)pyrazolo[1,5-a]pyridine-3-carbonitrile]
- IC50 (VEGFR2): 4.14 nM
- GI50 (Ba/F3-KIF5B-RET cell): 5.02 nM
- IC50 (RET): 0.47 nM

Structure (SMILES): C#CCOc1cc(-c2ccc(N(C)[C@@H](C)c3ccc(-n4cc(F)cn4)nc3)nc2)c2c(C#N)cnn2c1 [Compound 53, (S)-4-(6-((1-(6-(4-fluoro-1H-pyrazol-1-yl)pyridin-3-yl)ethyl)(methyl)amino)pyridine-3-yl)-6-(prop-2-yn-1-yloxy)pyrazolo[1,5-a]pyridine-3-carbonitrile]
- IC50 (VEGFR2): 293 nM
- GI50 (Ba/F3-KIF5B-RET cell): 432 nM
- IC50 (RET): 5.52 nM

Structure (SMILES): COCOc1cc(-c2ccc(N(C)[C@@H](C)c3ccc(-n4cc(F)cn4)nc3)nc2)c2c(C#N)cnn2c1 [Compound 55, (S)-4-(6-((1-(6-(4-fluoro-1H-pyrazol-1-yl)pyridin-3-yl)ethyl)(methyl)amino)pyridine-3-yl)-6-(methoxymethoxy)pyrazolo[1,5-a]pyridine-3-carbonitrile]
- IC50 (VEGFR2): > 5000 nM
- GI50 (Ba/F3-KIF5B-RET cell): 380 nM
- IC50 (RET): 3.79 nM

Structure (SMILES): CN(Cc1ccc(-n2cc(F)cn2)nc1)c1ccc(-c2cc(OCC(C)(C)O)cn3ncc(C#N)c23)cn1 [Compound 56, 4-(6-(((6-(4-fluoro-1H-pyrazol-1-yl)pyridin-3-yl)methyl)(methyl)amino)pyridin-3-yl)-6-(2-hydroxy-2-methylpropoxy)pyrazolo[1,5-a]pyridine-3-carbonitrile]
- IC50 (VEGFR2): 30.2 nM
- GI50 (Ba/F3-KIF5B-RET cell): 13.9 nM
- IC50 (RET): 0.68 nM

Structure (SMILES): CCN(Cc1ccc(-n2cc(F)cn2)nc1)c1ccc(-c2cc(OCC(C)(C)O)cn3ncc(C#N)c23)cn1 [Compound 57]
- IC50 (VEGFR2): 59.2 nM
- GI50 (Ba/F3-KIF5B-RET cell): 40.7 nM
- IC50 (RET): 1.3 nM

Structure (SMILES): C[C@@H](c1ccc(-n2cccn2)nc1)N(C)c1ccc(-c2cc(OCC(C)(C)O)cn3ncc(C#N)c23)cn1 [Compound 58, (S)-4-(6-((1-(6-(1H-pyrazol-1-yl)pyridin-3-yl)ethyl)(methyl)amino)pyridin-3-yl)-6-(2-hydroxy-2-methylpropoxy)pyrazolo[1,5-a]pyridine-3-carbonitrile]
- IC50 (VEGFR2): 26.5 nM
- GI50 (Ba/F3-KIF5B-RET cell): 42.8 nM
- IC50 (RET): 0.5 nM

Structure (SMILES): CCCNc1cc(-c2ccc(N(C)[C@@H](C)c3ccc(-n4cc(F)cn4)nc3)nc2)c2c(C#N)cnn2c1 [Compound 60]
- IC50 (VEGFR2): 43.9 nM
- GI50 (Ba/F3-KIF5B-RET cell): 11.6 nM
- IC50 (RET): 0.98 nM

Structure (SMILES): C[C@@H](c1ccc(-n2cc(F)cn2)nc1)N(C)c1ccc(-c2cc(OCC(C)(C)O)cn3ncc(C#N)c23)cn1 [Compound 61, (S)-4-(6-((1-(6-(4-fluoro-1H-pyrazol-1-yl)pyridin-3-yl)ethyl)(methyl)amino)pyridine-3-yl)-6-(2-hydroxy-2-methylpropoxy)pyrazolo[1,5-a]pyridine-3-carbonitrile]
- IC50 (VEGFR2): 25.5 nM
- GI50 (Ba/F3-KIF5B-RET cell): 1.53 nM
- IC50 (RET): 0.48 nM

Structure (SMILES): C[C@@H](c1ccc(N2CCCC2)nc1)N(C)c1ccc(-c2cc(OCC(C)(C)O)cn3ncc(C#N)c23)cn1 [Compound 62]
- IC50 (VEGFR2): 176 nM
- GI50 (Ba/F3-KIF5B-RET cell): 1030 nM
- IC50 (RET): 1.85 nM

Structure (SMILES): CN(C(=O)c1ccc(N2CCCC2)nc1)c1ccc(-c2cc(OCC(C)(C)O)cn3ncc(C#N)c23)cn1 [Compound 64]
- IC50 (VEGFR2): 2480 nM
- GI50 (Ba/F3-KIF5B-RET cell): 1120 nM
- IC50 (RET): > 500 nM
